Data from ChEMBL document CHEMBL1145558, “3,5-Dihydro-imidazo[4,5-d]pyridazin-4-ones: a class of potent DPP-4 inhibitors” (Bioorg Med Chem Lett, 2008).

Tests used:
[1] = biological target: T1, Muscarinic acetylcholine receptor M1 (Homo sapiens, UniProt P11229); assay: Displacement of [N-methyl-3H]scopolamine from human recombinant muscarinic receptor M1 expressed in CHO cell membrane; type: cell membranes
T1 sequence (P11229 whole entry): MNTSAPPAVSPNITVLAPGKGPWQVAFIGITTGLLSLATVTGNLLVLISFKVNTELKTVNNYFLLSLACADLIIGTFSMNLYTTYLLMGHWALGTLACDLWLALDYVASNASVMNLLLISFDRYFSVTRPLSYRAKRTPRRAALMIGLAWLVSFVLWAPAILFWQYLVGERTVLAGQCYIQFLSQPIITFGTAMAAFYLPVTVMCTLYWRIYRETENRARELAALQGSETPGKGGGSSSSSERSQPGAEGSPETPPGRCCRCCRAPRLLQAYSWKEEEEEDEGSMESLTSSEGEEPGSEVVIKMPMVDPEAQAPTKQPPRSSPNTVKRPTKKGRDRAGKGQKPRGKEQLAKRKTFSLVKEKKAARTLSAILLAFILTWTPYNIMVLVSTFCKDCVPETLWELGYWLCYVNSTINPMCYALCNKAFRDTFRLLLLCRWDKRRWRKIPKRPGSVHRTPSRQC

Rattus norvegicus [2] = species: Rattus norvegicus; assay: animal or person; settings: Plasma, po, 7 h, read-out: Inhibition
Description: Ex vivo inhibition of DPP4 in rat plasma at 10 mg/kg, po after 7 hrs

hERG (KCNH2) = hERG (KCNH2) (Homo sapiens, UniProt Q12809); assay: Inhibition of human ERG assessed as channel current activity at 1 uM; parameters: scale not given: the % may be the effect or the level left; settings: read-out: Activity
Chain of hERG (KCNH2) (Q12809 whole entry): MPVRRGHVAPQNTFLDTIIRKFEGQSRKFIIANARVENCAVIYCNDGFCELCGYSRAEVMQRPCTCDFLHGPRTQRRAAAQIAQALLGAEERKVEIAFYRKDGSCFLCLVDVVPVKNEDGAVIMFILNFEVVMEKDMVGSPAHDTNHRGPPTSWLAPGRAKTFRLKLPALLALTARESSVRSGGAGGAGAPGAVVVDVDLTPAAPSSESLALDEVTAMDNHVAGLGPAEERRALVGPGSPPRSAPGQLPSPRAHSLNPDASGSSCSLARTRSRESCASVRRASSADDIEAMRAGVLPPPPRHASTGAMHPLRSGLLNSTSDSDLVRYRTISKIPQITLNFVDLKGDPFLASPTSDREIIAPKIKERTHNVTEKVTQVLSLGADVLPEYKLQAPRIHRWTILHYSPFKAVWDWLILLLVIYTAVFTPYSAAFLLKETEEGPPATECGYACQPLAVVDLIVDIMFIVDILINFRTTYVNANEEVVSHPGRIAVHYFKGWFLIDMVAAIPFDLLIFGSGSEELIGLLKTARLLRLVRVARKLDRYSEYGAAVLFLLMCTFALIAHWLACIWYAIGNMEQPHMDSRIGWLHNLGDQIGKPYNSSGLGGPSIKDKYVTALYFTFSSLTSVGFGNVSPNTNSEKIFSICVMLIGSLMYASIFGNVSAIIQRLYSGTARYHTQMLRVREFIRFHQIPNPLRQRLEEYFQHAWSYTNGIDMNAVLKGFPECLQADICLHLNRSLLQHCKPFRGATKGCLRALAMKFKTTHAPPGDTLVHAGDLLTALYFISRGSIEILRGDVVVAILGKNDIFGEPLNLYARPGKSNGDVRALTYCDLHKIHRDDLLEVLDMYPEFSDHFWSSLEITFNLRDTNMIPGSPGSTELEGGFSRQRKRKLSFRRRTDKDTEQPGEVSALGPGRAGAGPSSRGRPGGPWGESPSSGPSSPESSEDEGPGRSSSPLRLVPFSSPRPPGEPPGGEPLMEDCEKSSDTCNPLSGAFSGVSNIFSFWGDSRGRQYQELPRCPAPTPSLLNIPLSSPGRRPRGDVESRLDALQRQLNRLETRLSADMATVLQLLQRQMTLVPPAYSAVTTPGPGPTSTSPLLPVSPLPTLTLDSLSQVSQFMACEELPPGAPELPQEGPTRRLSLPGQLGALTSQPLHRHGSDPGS

Cytochrome P450 3A4 = Cytochrome P450 3A4 (Homo sapiens, UniProt P08684); assay: Inhibition of CYP3A4; type: ADME
Chain of Cytochrome P450 3A4 (P08684 whole entry): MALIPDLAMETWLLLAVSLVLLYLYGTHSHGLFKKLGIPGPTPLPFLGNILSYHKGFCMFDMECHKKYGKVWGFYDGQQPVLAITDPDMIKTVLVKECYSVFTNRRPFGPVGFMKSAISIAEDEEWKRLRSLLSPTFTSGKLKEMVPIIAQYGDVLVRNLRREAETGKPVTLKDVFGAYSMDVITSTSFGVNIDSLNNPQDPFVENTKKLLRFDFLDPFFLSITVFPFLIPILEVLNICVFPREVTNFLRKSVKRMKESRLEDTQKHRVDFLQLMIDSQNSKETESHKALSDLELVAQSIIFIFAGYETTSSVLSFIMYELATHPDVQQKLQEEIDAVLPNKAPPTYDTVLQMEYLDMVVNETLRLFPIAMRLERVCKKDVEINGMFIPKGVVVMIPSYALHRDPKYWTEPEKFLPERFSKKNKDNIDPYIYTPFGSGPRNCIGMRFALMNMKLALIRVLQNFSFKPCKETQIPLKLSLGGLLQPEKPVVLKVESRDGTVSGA

Cytochrome P450 2D6 = Cytochrome P450 2D6 (Homo sapiens, UniProt P10635); assay: Inhibition of CYP2D6; type: ADME
Chain of Cytochrome P450 2D6 (P10635 whole entry): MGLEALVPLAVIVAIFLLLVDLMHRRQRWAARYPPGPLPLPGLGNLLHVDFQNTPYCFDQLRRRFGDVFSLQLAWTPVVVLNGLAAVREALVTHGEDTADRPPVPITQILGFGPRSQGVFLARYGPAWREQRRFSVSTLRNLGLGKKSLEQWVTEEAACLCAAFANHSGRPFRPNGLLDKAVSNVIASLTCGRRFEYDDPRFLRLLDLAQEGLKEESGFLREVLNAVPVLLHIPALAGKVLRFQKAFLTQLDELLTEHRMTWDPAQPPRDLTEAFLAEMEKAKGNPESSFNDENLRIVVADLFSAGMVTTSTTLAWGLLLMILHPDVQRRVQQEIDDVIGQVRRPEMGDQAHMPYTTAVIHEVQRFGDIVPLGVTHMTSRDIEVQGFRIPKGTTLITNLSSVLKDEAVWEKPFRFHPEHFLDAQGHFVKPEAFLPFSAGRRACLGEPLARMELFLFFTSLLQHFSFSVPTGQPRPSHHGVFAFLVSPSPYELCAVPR

Cytochrome P450 2C9 = Cytochrome P450 2C9 (Homo sapiens, UniProt P11712); assay: Inhibition of CYP2C9; type: ADME
Chain of Cytochrome P450 2C9 (P11712 whole entry): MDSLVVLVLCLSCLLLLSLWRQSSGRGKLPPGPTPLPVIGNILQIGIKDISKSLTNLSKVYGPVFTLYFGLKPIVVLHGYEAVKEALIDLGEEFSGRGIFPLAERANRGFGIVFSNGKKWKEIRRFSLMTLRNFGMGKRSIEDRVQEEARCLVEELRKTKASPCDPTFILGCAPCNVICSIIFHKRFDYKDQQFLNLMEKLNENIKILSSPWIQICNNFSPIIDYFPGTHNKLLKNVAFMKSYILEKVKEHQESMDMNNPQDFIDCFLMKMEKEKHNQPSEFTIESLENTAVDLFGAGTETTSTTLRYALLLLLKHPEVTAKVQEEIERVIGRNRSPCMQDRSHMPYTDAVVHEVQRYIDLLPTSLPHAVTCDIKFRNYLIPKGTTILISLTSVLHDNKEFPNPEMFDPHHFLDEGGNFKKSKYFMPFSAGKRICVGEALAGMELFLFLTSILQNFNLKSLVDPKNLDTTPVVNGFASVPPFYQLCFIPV

Cytochrome P450 2C19 = Cytochrome P450 2C19 (Homo sapiens, UniProt P33261); assay: Inhibition of CYP2C19; type: ADME
Chain of Cytochrome P450 2C19 (P33261 whole entry): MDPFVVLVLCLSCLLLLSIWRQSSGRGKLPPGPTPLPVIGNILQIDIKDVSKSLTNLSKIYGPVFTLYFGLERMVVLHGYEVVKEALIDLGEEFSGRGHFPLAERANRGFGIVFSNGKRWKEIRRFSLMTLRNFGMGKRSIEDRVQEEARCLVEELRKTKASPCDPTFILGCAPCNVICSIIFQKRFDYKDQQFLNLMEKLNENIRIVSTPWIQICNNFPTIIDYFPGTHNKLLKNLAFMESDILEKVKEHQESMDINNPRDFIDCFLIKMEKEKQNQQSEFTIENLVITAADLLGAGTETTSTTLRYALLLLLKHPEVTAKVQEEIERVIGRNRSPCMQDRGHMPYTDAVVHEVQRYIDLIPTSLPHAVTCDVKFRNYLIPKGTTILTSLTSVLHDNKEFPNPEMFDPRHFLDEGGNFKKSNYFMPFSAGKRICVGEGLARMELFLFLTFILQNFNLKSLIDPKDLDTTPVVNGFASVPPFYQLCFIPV

Cytochrome P450 1A2 = biological target: T2, Cytochrome P450 1A2 (Homo sapiens, UniProt P05177); assay: Inhibition of CYP1A2; type: ADME
T2 sequence (P05177 whole entry): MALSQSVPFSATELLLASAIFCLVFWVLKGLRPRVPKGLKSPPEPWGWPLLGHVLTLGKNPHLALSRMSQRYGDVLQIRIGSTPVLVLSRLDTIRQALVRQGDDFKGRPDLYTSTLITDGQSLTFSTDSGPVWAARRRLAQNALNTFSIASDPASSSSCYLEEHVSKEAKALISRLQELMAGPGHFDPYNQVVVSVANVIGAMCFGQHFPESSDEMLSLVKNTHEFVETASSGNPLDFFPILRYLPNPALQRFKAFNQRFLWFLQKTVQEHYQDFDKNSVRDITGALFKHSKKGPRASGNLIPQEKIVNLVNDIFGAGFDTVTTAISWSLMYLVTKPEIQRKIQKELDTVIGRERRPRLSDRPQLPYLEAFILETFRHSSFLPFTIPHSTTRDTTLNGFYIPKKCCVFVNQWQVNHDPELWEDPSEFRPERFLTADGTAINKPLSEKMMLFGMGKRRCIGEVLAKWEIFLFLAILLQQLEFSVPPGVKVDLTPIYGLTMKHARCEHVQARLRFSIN

[3] = Metabolic stability in human liver cytosol assessed as half life; type: ADME, tissue-based
[4] = Metabolic stability in human liver microsomes assessed as half life; type: ADME, Microsome
[5] = Clearance in rat; type: ADME, organism-based; settings: in vivo
[6] = Volume of distribution at steady state in rat; type: ADME, organism-based; settings: in vivo, read-out: Vdss
[7] = Mean residence time in rat; type: ADME, organism-based; settings: in vivo
[8] = Oral bioavailability in rat; type: ADME, organism-based; settings: in vivo
Rattus norvegicus [9] = assay: Ex vivo inhibition of DPP4 in rat plasma at 10 mg/kg, po after 24 hrs; type: functional; parameters: scale not given: the % may be the effect or the level left

| SMILES | IC50 [1] [nM] | inhibition in vivo at 10 mg/kg (Rattus norvegicus [2]) [%] | also measured |
| --- | --- | --- | --- |
| CC#CCn1c(N2CCC[C@@H](N)C2)nc2c(C)nn(Cc3nc(C)c4ccccc4n3)c(=O)c21 | 93 | 76 | – |
| CC#CCn1c(N2CCCC(N)C2)nc2cnn(CC3=Nc4ccccc4Oc4ccccc43)c(=O)c21 (centres undefined) | 5610 | 73 | – |
| CC#CCn1c(N2CCCC(N)C2)nc2cnn(CC(=O)c3ccccc3)c(=O)c21 (centres undefined) | – | 8 | – |
| CC#CCn1c(N2CCC[C@H](N)C2)nc2cnn(CC3=Nc4ccccc4Oc4ccccc43)c(=O)c21 | – | 9 | – |
| CC#CCn1c(N2CCCC(N)C2)nc2cnn(Cc3nc4ccccc4o3)c(=O)c21 (centres undefined) | – | 64 | – |
| CC#CCn1c(NCCN)nc2cnn(Cc3nc(C)c4ccccc4n3)c(=O)c21 | > 5000 | 29 | – |
| CC#CCn1c(N2CCCNCC2)nc2cnn(Cc3nc(C)c4ccccc4n3)c(=O)c21 | 954 | 20 | – |
| CC#CCn1c(N2CCC[C@@H](N)C2)nc2cnn(CC3=Nc4ccccc4Oc4ccccc43)c(=O)c21 | > 5000 | 63 | – |
| CC#CCn1c(N2CCNCC2)nc2cnn(Cc3nc(C)c4ccccc4n3)c(=O)c21 | 2800 | 45 | – |
| CC#CCn1c(NC[C@H](C)N)nc2cnn(Cc3nc(C)c4ccccc4n3)c(=O)c21 | > 5000 | 50 | – |
| CC#CCn1c(N2CCC[C@@H](N)C2)nc2cnn(Cc3nc(C)c4ccccc4n3)c(=O)c21 | 1190 | 80 | activity at 1 µM (hERG (KCNH2)): 88%; Inhibition (Cytochrome P450 3A4): > 50 µM; Inhibition (Cytochrome P450 2D6): > 50 µM; Inhibition (Cytochrome P450 2C9): > 50 µM; Inhibition (Cytochrome P450 2C19): > 50 µM; Inhibition (Cytochrome P450 1A2): > 50 µM; half-life [3]: > 1.5 h; half-life [4]: > 1.5 h; clearance [5]: 56 mL/min/kg; Vd [6]: 40 L/kg; MRT [7]: 8.8 h; bioavailability [8]: 15%; Activity (Rattus norvegicus [9]): 71% |
| CC#CCn1c(N2CCCC(N)C2)nc2cnn(Cc3ccc(C#N)c4ccccc34)c(=O)c21 (centres undefined) | 862 | 84 | – |
